Reference: publication PMC8067632, “Assessment and Development of the Antifungal Agent Caspofungin for Aerosolized Pulmonary Delivery” (Pharmaceutics, 2021)

Experiment: Aerosol characterization (PARI LC Star nebulizer, QCM cascade impactor)
Format: physicochemical
Conditions: 10 mg/mL caspofungin diacetate, determined once
Experimental: Aerosol particle size distribution was determined once with a quartz crystal microbalance (QCM) cascade impactor (California Measurements Inc., Sierra Madre, CA, USA) equipped with 10 stages to collect size-segregated samples. The mass median aerodynamic diameter (MMAD) and geometric standard deviation (GSD) were calculated from the mass accumulated on each collection stage of the QCM. Each formulation was tested by aerosolizing it with a PARI LC Star nebulizer (PARI Respiratory Equipment, Inc., Midlothian, VA, USA) connected to compressed air at 28 psi. The air flow to the nebulizer was about 6.2 L/min. Approximately 7 mL of the test formulation solution was placed in the nebulizer, weighed and connected to the air supply for aerosolization. The nebulizer was operated for 12 min, and post weighed. The generated aerosol was delivered into a plenum with a narrow opening. A stream of test aerosol was sampled from the plenum for particle size determination. A Quartz Crystal Microbalance based cascade impactor (TSI Inc., Shoreview, MN, USA) was used for these determinations. Details of the formulation preparations are described in Supplementary Material S3.
S3. Aerosol Characterization
(PVP K30, 100 mg/mL) were prepared. […]
osols for the purpose of comparing particle size.
S3.1. Preparation of Caspofungin Diacetate Stock Solution: […]
and recorded once during the exposure. […]

SMILES: CC[C@H](C)C[C@H](C)CCCCCCCCC(=O)N[C@H]1C[C@@H](O)[C@@H](NCCN)NC(=O)[C@@H]2[C@@H](O)CCN2C(=O)[C@H]([C@H](O)CCN)NC(=O)[C@H]([C@H](O)[C@@H](O)c2ccc(O)cc2)NC(=O)[C@@H]2C[C@@H](O)CN2C(=O)[C@H]([C@@H](C)O)NC1=O [Caspofungin Diacetate]
- MMAD (Mass Median Aerodynamic Diameter): 1.15 microns
